# Test results published in patent publication US20250312499A1, “KISSPEPTIN RECEPTOR (KISS1R) TARGETED THERAPEUTICS AND USES THEREOF” (priority 2024, published 2025).
# Square brackets hold non-standard residues; d marks the D form. Peptide text beside a SMILES is read from it. * marks the point of attachment. X8 = COCCOCCOCCOCCOCCOCCOCCOCCOCCOCCOCCOCCOCCOCCOCCOCCOCCOCCOCCOCCOCCOCCOCCOCCOCCC(=O)*; DOTA = O=C(O)CN1CCN(CC(=O)O)CCN(CC(=O)*)CCN(CC(=O)O)CC1; Ala(9-anthryl) = N[C@@H](Cc1c2ccccc2cc2ccccc12)C(=O)O; Gly(N-(3-F-4-Me-benzyl)) = Cc1ccc(CNCC(=O)*)cc1F; Propanoyl(3-(MeO(CH2CH2O)2)) = COCCOCCOCCC(=O)*; Gly(N-3-F-4-Me-benzyl) = Cc1ccc(CNCC(=O)O)cc1F; Api(1-amidino) = N=C(N)N1CCC(N)(C(=O)O)CC1; Phe(4-CN) = N#Cc1ccc(C[C@H](N)C(=O)O)cc1; Phe(3-F) = N[C@@H](Cc1cccc(F)c1)C(=O)O; Phe(4-I) = N[C@@H](Cc1ccc(I)cc1)C(=O)O; X9 = O=C(CCOCCOCCOCCOCCOCCOCCOCCOCCO)*; 2Nal = N[C@@H](Cc1ccc2ccccc2c1)C(=O)O; d2Nal = N[C@H](Cc1ccc2ccccc2c1)C(=O)O; Trx = NC[C@H]1CC[C@H](C(=O)O)CC1; dCya = N[C@H](CS(=O)(=O)O)C(=O)O; 4Pal = N[C@@H](Cc1ccncc1)C(=O)O; Cha = N[C@@H](CC1CCCCC1)C(=O)O; Lauroyl = CCCCCCCCCCCC(=O)*; Octanoyl = CCCCCCCC(=O)*; Api = NC1(C(=O)O)CCNCC1; PEG2 = NCCOCCOCCC(=O)O; Ahx = NCCCCCC(=O)O; azaGly = NNC(=O)O; Sar = CNCC(=O)O
# Target: human kisspeptin receptor (Homo sapiens (Human), UniProt Q969F8)
# Assay: Human KISS1R binding assay (membrane competition binding)
# Conditions: 90 min at room temperature; competition with 0.2 nM [125I]-metastin (45-54); Flp-In T-Rex 293 kisspeptin membranes; metal complexes nonradioactive Ga, In, Lu; read-out: hKiSSR Binding Ki (90 min)
# Outline: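 Membranes from tetracycline-induced (48 h) Flp-In T-Rex 293 cells expressing receptor, 5–10 μg, incubated 90 min at room temperature with 0.2 nM [125I]-metastin (45-54) and competitor (typically 0–10,000 nM) in Tris/Mg/Ca/EGTA/0.1% BSA, pH 7.4. Filtration, washing, counting; Ki by non-linear regression.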
# human kisspeptin receptor, sequence (Q969F8 whole entry): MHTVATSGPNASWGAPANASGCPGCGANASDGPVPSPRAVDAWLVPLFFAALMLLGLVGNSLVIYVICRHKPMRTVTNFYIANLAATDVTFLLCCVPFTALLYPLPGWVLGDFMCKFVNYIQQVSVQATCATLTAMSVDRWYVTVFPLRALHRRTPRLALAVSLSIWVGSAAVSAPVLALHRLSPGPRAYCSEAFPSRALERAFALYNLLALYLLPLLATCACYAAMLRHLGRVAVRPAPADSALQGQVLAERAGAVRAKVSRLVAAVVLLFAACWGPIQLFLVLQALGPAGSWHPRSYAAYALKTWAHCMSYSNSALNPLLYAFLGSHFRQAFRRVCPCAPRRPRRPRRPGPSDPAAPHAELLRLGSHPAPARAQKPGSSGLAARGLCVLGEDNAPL
row,SMILES,Ki
1,Cc1ccc(CNCC(=O)N2CCC(NC(=O)[C@H](CC(C)C)NC(=O)NNC(=O)[C@H](Cc3ccccc3)NC(=O)CN3CCN(CC(=O)O)CCN(CC(=O)O)CCN(CC(=O)O)CC3)(C(=O)N[C@@H](Cc3c[nH]c4ccccc34)C(N)=O)CC2)cc1F [Compound 49] ({DOTA}-F[azaGly]L[Api](Gly(N-(3-F-4-Me-benzyl)))W-NH2),> 100 nM
2,Cc1ccc(CNCC(=O)N2CCC(NC(=O)[C@H](CC(C)C)NC(=O)NNC(=O)[C@H](Cc3ccccc3)NC(=O)[C@@H](NC(=O)[C@H](CC(N)=O)NC(=O)[C@@H](Cc3c[nH]c4ccccc34)NC(=O)[C@H](N)Cc3ccc(O)cc3)[C@@H](C)O)(C(=O)N[C@@H](Cc3c[nH]c4ccccc34)C(N)=O)CC2)cc1F [Compound 402] (H-[dY][dW]NTF[azaGly]L[Api](Gly(N-(3-F-4-Me-benzyl)))W-NH2),< 10 nM
3,CC(C)C[C@H](NC(=O)NNC(=O)[C@H](Cc1ccccc1)NC(=O)[C@@H](NC(=O)[C@H](CC(N)=O)NC(=O)[C@H](Cc1ccc2ccccc2c1)NC(=O)[C@@H](Cc1ccc(O)cc1)NC(=O)CCCCCNC(=O)CN1CCN(CC(=O)O)CCN(CC(=O)O)CCN(CC(=O)O)CC1)[C@@H](C)O)C(=O)NC1(C(=O)N[C@@H](Cc2ccc(O)cc2)C(N)=O)CCN(C(=N)N)CC1 [Compound 276] ({DOTA-Ahx}-[dY][2Nal]NTF[azaGly]L[Api(1-amidino)]Y-NH2),< 10 nM
4,Cc1ccc(CNCC(=O)N2CCC(NC(=O)c3cccc(OCCNC(=O)[C@H](Cc4ccccc4)NC(=O)CCCCCNC(=O)CN4CCN(CC(=O)O)CCN(CC(=O)O)CCN(CC(=O)O)CC4)c3)(C(=O)N[C@@H](Cc3c[nH]c4ccccc34)C(N)=O)CC2)cc1F [Compound 134],10 to 100 nM
5,CCCCCCCCCCCC(=O)N[C@H](Cc1ccc(O)cc1)C(=O)N[C@@H](CCCCNC(=O)CN1CCN(CC(=O)O)CCN(CC(=O)O)CCN(CC(=O)O)CC1)C(=O)N[C@@H](CC(N)=O)C(=O)N[C@H](C(=O)N[C@@H](Cc1ccccc1)C(=O)NNC(=O)N[C@@H](CC(C)C)C(=O)NC1(C(=O)N[C@@H](Cc2c[nH]c3ccccc23)C(N)=O)CCN(C(=N)N)CC1)[C@@H](C)O [Compound 329] (Lauroyl-[dY]K(DOTA)NTF[azaGly]L[Api(1-amidino)]W-NH2),< 10 nM
6,CCCCCCCC(=O)N[C@H](Cc1ccc(O)cc1)C(=O)N[C@H](Cc1c[nH]c2ccccc12)C(=O)N[C@@H](CC(N)=O)C(=O)N[C@H](C(=O)N[C@@H](CC1CCCCC1)C(=O)NNC(=O)N[C@@H](CC(C)C)C(=O)NC1(C(=O)N[C@@H](Cc2c[nH]c3ccccc23)C(N)=O)CCN(C(=O)CNCc2ccc(C)c(F)c2)CC1)[C@@H](C)O [Compound 405] (Octanoyl-[dY][dW]NT[Cha][azaGly]L[Api](Gly(N-(3-F-4-Me-benzyl)))W-NH2),< 10 nM
7,CC(C)C[C@H](NC(=O)NNC(=O)[C@H](Cc1ccc(I)cc1)NC(=O)[C@@H](NC(=O)[C@H](CC(N)=O)NC(=O)[C@H](Cc1c2ccccc2cc2ccccc12)NC(=O)[C@@H](Cc1ccc(O)cc1)NC(=O)CN1CCN(CC(=O)O)CCN(CC(=O)O)CCN(CC(=O)O)CC1)[C@@H](C)O)C(=O)NC1(C(=O)N[C@@H](Cc2ccncc2)C(N)=O)CCN(C(=N)N)CC1 [Compound 188] ({DOTA}-[dY][Ala(9-anthryl)]NT[Phe(4-I)][azaGly]L[Api(1-amidino)][4Pal]-NH2),10 to 100 nM
8,COCCOCCOCCOCCOCCOCCOCCOCCOCCOCCOCCOCCOCCOCCOCCOCCOCCOCCOCCOCCOCCOCCOCCOCCOCCC(=O)N[C@H](Cc1ccc(O)cc1)C(=O)N[C@@H](CCCCNC(=O)CN1CCN(CC(=O)O)CCN(CC(=O)O)CCN(CC(=O)O)CC1)C(=O)N[C@@H](CC(N)=O)C(=O)N[C@H](C(=O)N[C@@H](Cc1ccccc1)C(=O)NNC(=O)N[C@@H](CC(C)C)C(=O)NC1(C(=O)N[C@@H](Cc2c[nH]c3ccccc23)C(N)=O)CCN(C(=N)N)CC1)[C@@H](C)O [Compound 182] (X8-[dY]K(DOTA)NTF[azaGly]L[Api(1-amidino)]W-NH2),< 10 nM
9,Cc1ccc(CNCC(=O)N2CCC(NC(=O)[C@H](CC(C)C)NC(=O)NNC(=O)[C@H](Cc3cccc(F)c3)NC(=O)[C@@H](NC(=O)[C@H](CC(N)=O)NC(=O)[C@H](CCC(=O)O)NC(=O)CN3CCN(CC(=O)O)CCN(CC(=O)O)CCN(CC(=O)O)CC3)[C@@H](C)O)(C(=O)N[C@@H](Cc3ccncc3)C(N)=O)CC2)cc1F [Compound 171] ({DOTA}-ENT[Phe(3-F)][azaGly]L[Api](Gly(N-(3-F-4-Me-benzyl)))[4Pal]-NH2),10 to 100 nM
10,Cc1ccc(CNCC(=O)N2CCC(NC(=O)[C@H](CC(C)C)NC(=O)NNC(=O)[C@H](Cc3ccccc3)NC(=O)[C@@H](NC(=O)[C@H](CC(N)=O)NC(=O)[C@H](CCCCNC(=O)CN3CCN(CC(=O)O)CCN(CC(=O)O)CCN(CC(=O)O)CC3)NC(=O)CCOCCOCCOCCOCCOCCOCCOCCOCCO)[C@@H](C)O)(C(=O)N[C@@H](Cc3ccncc3)C(N)=O)CC2)cc1F [Compound 256] (X9-K(DOTA)NTF[azaGly]L[Api](Gly(N-(3-F-4-Me-benzyl)))[4Pal]-NH2),< 10 nM
11,COCCOCCOCCC(=O)N[C@@H](CCCCNC(=O)CN1CCN(CC(=O)O)CCN(CC(=O)O)CCN(CC(=O)O)CC1)C(=O)N[C@@H](CC(N)=O)C(=O)N[C@H](C(=O)N[C@@H](Cc1ccccc1)C(=O)NNC(=O)N[C@@H](CC(C)C)C(=O)NC1(C(=O)N[C@@H](Cc2ccncc2)C(N)=O)CCN(C(=O)CNCc2ccc(C)c(F)c2)CC1)[C@@H](C)O [Compound 255] ({Propanoyl(3-(MeO(CH2CH2O)2))}-K(DOTA)NTF[azaGly]L[Api](Gly(N-(3-F-4-Me-benzyl)))[4Pal]-NH2),< 10 nM
12,CC(C)C[C@H](NC(=O)NNC(=O)[C@H](Cc1ccccc1)NC(=O)[C@@H](NC(=O)[C@H](CC(N)=O)NC(=O)[C@@H](Cc1c[nH]c2ccccc12)NC(=O)[C@@H](Cc1ccc(O)cc1)NC(=O)CCCCCNC(=O)CN1CCN(CC(=O)O)CCN(CC(=O)O)CCN(CC(=O)O)CC1)[C@@H](C)O)C(=O)NC1(C(=O)N[C@@H](Cc2c[nH]c3ccccc23)C(N)=O)CCN(C(=N)N)CC1 [Compound 6] ({DOTA-Ahx}-[dY][dW]NTF[azaGly]L[Api(1-amidino)]W-NH2),< 10 nM
13,Cc1ccc(CNCC(=O)N2CCC(NC(=O)[C@H](CC(C)C)NC(=O)NNC(=O)[C@H](Cc3cccc(F)c3)NC(=O)[C@@H](NC(=O)[C@H](CC(N)=O)NC(=O)[C@H](CCC(=O)O)NC(=O)[C@H]3CC[C@H](CNC(=O)CN4CCN(CC(=O)O)CCN(CC(=O)O)CCN(CC(=O)O)CC4)CC3)[C@@H](C)O)(C(=O)N[C@@H](Cc3c[nH]c4ccccc34)C(N)=O)CC2)cc1F [Compound 160] ({DOTA-Trx}-ENT[Phe(3-F)][azaGly]L[Api](Gly(N-(3-F-4-Me-benzyl)))W-NH2),< 10 nM

# Other lines, results leading:
row,Ki,SMILES
1,< 10 nM,Cc1ccc(CNCC(=O)N2CCC(NC(=O)[C@H](CC(C)C)NC(=O)NNC(=O)[C@H](Cc3ccccc3)NC(=O)[C@@H](NC(=O)[C@H](CC(N)=O)NC(=O)[C@H](CCC(=O)O)NC(=O)CCCCCNC(=O)CN3CCN(CC(=O)O)CCN(CC(=O)O)CCN(CC(=O)O)CC3)[C@@H](C)O)(C(=O)N[C@@H](Cc3c[nH]c4ccccc34)C(N)=O)CC2)cc1F [Compound 238] ({DOTA-Ahx}-ENTF[azaGly]L[Api](Gly(N-(3-F-4-Me-benzyl)))W-NH2)
2,< 10 nM,CNCC(=O)N1CCC(NC(=O)[C@H](CC(C)C)NC(=O)NNC(=O)[C@H](Cc2ccccc2)NC(=O)[C@@H](NC(=O)[C@H](CC(N)=O)NC(=O)[C@@H](Cc2ccc3ccccc3c2)NC(=O)[C@H](N)Cc2ccc(O)cc2)[C@@H](C)O)(C(=O)N[C@@H](Cc2ccccc2)C(N)=O)CC1 [Compound 406] (H-[dY][d2Nal]NTF[azaGly]L[Api](Sar)F-NH2)
3,< 10 nM,Cc1ccc(CNCC(=O)N2CCC(NC(=O)[C@@H](/C=C/CNC(=O)[C@H](Cc3ccccc3)NC(=O)CCCCCNC(=O)CN3CCN(CC(=O)O)CCN(CC(=O)O)CCN(CC(=O)O)CC3)CC(C)C)(C(=O)N[C@@H](Cc3c[nH]c4ccccc34)C(N)=O)CC2)cc1F [Compound 51]
4,< 10 nM,Cc1ccc(CNCC(=O)N2CCC(NC(=O)[C@H](CC(C)C)NC(=O)NNC(=O)[C@H](Cc3ccccc3)NC(=O)[C@@H](NC(=O)[C@H](CC(N)=O)NC(=O)[C@@H](Cc3c[nH]c4ccccc34)NC(=O)[C@@H](Cc3ccc(O)cc3)NC(=O)CCCCCNC(=O)CN3CCN(CC(=O)O)CCN(CC(=O)O)CCN(CC(=O)O)CC3)[C@@H](C)O)(C(=O)N[C@@H](Cc3ccc(C#N)cc3)C(N)=O)CC2)cc1F [Compound 104] ({DOTA-Ahx}-[dY][dW]NTF[azaGly]L[Api](Gly(N-(3-F-4-Me-benzyl)))[Phe(4-CN)]-NH2)
5,< 10 nM,CNCC(=O)N1CCC(NC(=O)[C@H](CC(C)C)NC(=O)NNC(=O)[C@H](Cc2ccccc2)NC(=O)[C@@H](NC(=O)[C@H](CC(N)=O)NC(=O)[C@H](CCCCNC(=O)CN2CCN(CC(=O)O)CCN(CC(=O)O)CCN(CC(=O)O)CC2)NC(=O)[C@@H](Cc2ccc(O)cc2)NC(=O)CCOCCOCCNC(=O)CNCc2ccc(C)c(F)c2)[C@@H](C)O)(C(=O)N[C@@H](Cc2c[nH]c3ccccc23)C(N)=O)CC1 [Compound 384] (H-[Gly(N-3-F-4-Me-benzyl)][PEG2][dY]K(DOTA)NTF[azaGly]L[Api](Sar)W-NH2)
6,< 10 nM,CCCCCCCCCCCC(=O)N[C@H](Cc1ccc(O)cc1)C(=O)N[C@H](Cc1ccc2ccccc2c1)C(=O)N[C@@H](CC(N)=O)C(=O)N[C@H](C(=O)N[C@@H](Cc1ccccc1)C(=O)NNC(=O)N[C@@H](CC(C)C)C(=O)NC1(C(=O)N[C@@H](Cc2c[nH]c3ccccc23)C(N)=O)CCN(C(=O)CNC)CC1)[C@@H](C)O [Compound 400] (Lauroyl-[dY][d2Nal]NTF[azaGly]L[Api](Sar)W-NH2)
7,< 10 nM,Cc1ccc(CNCC(=O)N2CCC(NC(=O)[C@H](CC(C)C)NC(=O)NNC(=O)[C@H](Cc3ccccc3)NC(=O)CCCCCNC(=O)[C@@H](CS(=O)(=O)O)NC(=O)[C@@H](CS(=O)(=O)O)NC(=O)CN3CCN(CC(=O)O)CCN(CC(=O)O)CCN(CC(=O)O)CC3)(C(=O)N[C@@H](Cc3c[nH]c4ccccc34)C(N)=O)CC2)cc1F [Compound 130] ({DOTA}-[dCya][dCya][Ahx]F[azaGly]L[Api](Gly(N-(3-F-4-Me-benzyl)))W-NH2)
